Data taken from US11465995B2, “Crystal and salt forms of tricyclic compound and preparation process thereof” (SHIJIAZHUANG SAGACITY NEW DRUG DEVELOPMENT COMPANY, LTD., priority 2018, dated 2022).
“And” between values parts separate entries of the source, which are not always exact repeats. Identical values can stand only once.

Experiments:
[1] = target: T1, S1P1 receptor (Homo sapiens, UniProt P21453); assay: S1P1 receptor agonistic activity test (PathHunter cell line); assay type: cell-based; conditions: agonist mode
T1 construct: expressed in transfected cells
T1 sequence (P21453 whole entry): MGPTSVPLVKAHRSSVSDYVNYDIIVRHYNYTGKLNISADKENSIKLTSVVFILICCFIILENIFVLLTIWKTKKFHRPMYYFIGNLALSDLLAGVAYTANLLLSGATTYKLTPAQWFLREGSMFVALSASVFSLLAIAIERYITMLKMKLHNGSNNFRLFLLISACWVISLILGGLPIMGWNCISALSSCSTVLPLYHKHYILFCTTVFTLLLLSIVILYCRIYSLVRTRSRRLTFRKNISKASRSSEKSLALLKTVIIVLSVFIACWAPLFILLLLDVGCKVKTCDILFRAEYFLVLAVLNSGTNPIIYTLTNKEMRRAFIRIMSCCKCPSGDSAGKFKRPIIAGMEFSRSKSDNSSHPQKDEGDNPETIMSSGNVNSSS
Experimental: I. Cells Treatment • 1. PathHunter cell line was thawed according to standard procedures. • 2. The cells were inoculated in 20 μl 384-well microplates and incubated at 37° C. for appropriate time.
II. Agonist • 1. For the agonist assay, the cells were incubated with the testing sample to induce the reaction. • 2. The stock solution had been diluted 5 times with the buffer. • 3. 5 μl of 5-fold dilution was added into the cells, which were incubated at 37° C. for 90-180 min with the vehicle concentration of 1%.
III. Signal Detection • 1. 12.5 μl or 15 μl of PathHunter detection reagent at a volume ratio of 50% was added in one portion, then incubation at room temperature was performed for 1 h to generate detection signal. • 2. The PerkinElmer Envision™ instrument was used to read the microplate for chemiluminescence signal detection.
IV. Data Analysis • 1. CBIS data analysis kit was used to analyze the activity of the compound. • 2. Calculation formula: % Activity=100%×(average RLU of testing sample−average RLU of vehicle)/(average RLU of maximum control ligand−average RLU of vehicle) The results were shown in Table 3.

[2] = Pharmacokinetic evaluation in SD rats; assay type: in vivo; conditions: Sprague Dawley, rat, plasma, 3 mg/kg, male, intravenous injection and oral administration, Ozanimod at 3 mpk
Experimental: This Example is provided to test pharmacokinetics of compounds in SD rats.
Materials: Sprague Dawley rats (male, 200-300 g, 7-9 weeks, Shanghai SLAC)
Procedures: The rodent pharmacokinetic characteristics of the compound after intravenous injection and oral administration were tested according to standard protocol. In the test, the candidate compound was formulated as a clear solution, and the rats were given a single intravenous injection and oral administration. The intravenous and oral vehicles were a hydroxypropyl β cyclodextrin aqueous solution in a certain proportion or normal saline solution. The whole blood sample within 24 h was collected, centrifuged at 3000 g for 15 min, and the supernatant was separated to give the plasma sample. 4 volumes of acetonitrile solution containing internal standard was added to precipitate protein and after centrifugation the supernatant was collected and added with equal volume of water. After further centrifugation, the supernatant was used for injection. Quantitative analysis of blood drug concentration was done by LC-MS/MS analysis method and pharmacokinetic parameters were calculated, such as Cmax, Tmax, clearance, half-life, area under the curve of drug concentration-time, bioavailability, etc.

[3] = test system: blood lymphocytes; assay: Effects of single oral administration on blood lymphocytes in rats; assay type: in vivo, SD rats; conditions: for Percentage of lymphocytes in white blood cells in a unit volume of blood (%) / Rate of change of lymphocytes in blood after administration (%): mean ± SEM
Experimental: Normal SPF grade male SD rats were administered by single oral gavage. The experiment contained five groups: the vehicle control group, the reference compound Ozanimod group, Compound 1-0.3 mg/kg dose group, Compound 1-1.0 mg/kg dose group, Compound 1-3 mg/kg dose group. Blood was collected 0.5 h before administration and 4, 8, 24 h after administration, and anticoagulated with 10% K2-EDTA. The anticoagulated blood sample was placed in 4° C. environment, diluted 1:4 with normal saline, and quickly tested with a hematology analyzer to calculate the number of lymphocytes per liter of blood and the percentage in the total white blood cells. Graphpad prism 6.0 software was used to calculate the mean±standard error, and the two-way ANOVA test was used to test the significance of the difference. When p<0.05, there was a significant difference between two groups.

[4] = test system: TNBS-induced acute infectious bowel disease (IBD) model; assay: Pharmacodynamic test on TNBS-induced acute infectious bowel disease (IBD) model in female SD rats; assay type: in vivo; set-up: Ulcer score / Inflammation score / Total injury score: scale not given here; conditions: for Injury area (cm^2) / Ulcer area (cm^2) / Inflammation score / Total injury score / Ulcer score: mean ± sem; for Inflammation score / Total injury score / Ulcer score: colon pathological test
Experimental: Female SD rats were divided into 7 groups, that is, model group, prednisolone-10 mg/kg group, Ozanimod-0.3 mg/kg group, Ozanimod-1.0 mg/kg group, Compound 1-0.1 mg/kg group, Compound 1-0.3 mg/kg group, Compound 1-0.6 mg/kg group. All animals were deeply anesthetized with pentobarbital sodium, and TNBS-50% alcohol solution was inserted into the intestinal cavity from the anus for modeling. The animal's anus was squeezed, and the animal was allowed to stand upside down for 5 min. The animals were returned to the cage after assured to be leak free.
The test compounds were administered orally 1 h after modeling, once a day for 7 days. The model group was given an equal volume of drug vehicle. The animals were weighed daily before administration of the test compound and were monitored for daily fecal traits and given clinical observation scores. The day after the last administration, all animals were euthanized. The colons were collected (anal to nodular part), the length and weight of the colons were measured, and the gross anatomical scores of the lesion sizes was taken. The gross anatomical images of the colon lesions were recorded, and the tissues were fixed in 10% neutral formalin solution and were subjected to histopathological analysis.

[5] = 0.1 mg/kg oral once a day for 7 days
[6] = 0.3 mg/kg oral once a day for 7 days
[7] = 0.6 mg/kg oral once a day for 7 days

CC(C)Oc1ccc(-c2nc(-c3cccc4c3C[C@@H]3CC(=O)N(CCO)[C@H]43)no2)cc1C#N (single isomer, unassigned) [Compound 1]
EC50 [1]: < 10 nM
clearance [2]: 11.5 mL/min/kg
bioavailability ([2]; read-out: Bioavailability F (%)): 85.8%
AUC ([2]; read-out: Concentration Integration AUC): 6.83 µM·h
half-life ([2]; read-out: Half-life T1/2 (converted)): 3.46 h
Percentage of lymphocytes in white blood cells in a unit volume of blood (%) ([3]; 0.3 mg/kg single oral, 4 h): 52.08 ± 3.35^&&& %
Rate of change of lymphocytes in blood after administration (%) ([3]; 0.3 mg/kg single oral, 4 h, vs same group before administration): −59.57 ± 2.01 %
maximum decreasing rate of the number of blood lymphocytes ([3]; 0.3 mg/kg single oral, 8 h): 66.87%
Percentage of lymphocytes in white blood cells in a unit volume of blood (%) ([3]; 0.3 mg/kg single oral, 8 h): 46.71 ± 3.72^*#&&&& %
Rate of change of lymphocytes in blood after administration (%) ([3]; 0.3 mg/kg single oral, 8 h): −66.87 ± 1.97 %
blood lymphocyte decreasing rate ([3]; 0.3 mg/kg single oral, 24 h): −44.98%
Percentage of lymphocytes in white blood cells in a unit volume of blood (%) ([3]; 0.3 mg/kg single oral, 24 h): 63.86 ± 1.70%
Rate of change of lymphocytes in blood after administration (%) ([3]; 0.3 mg/kg single oral, 24 h): 44.98 ± 16.62 %
Percentage of lymphocytes in white blood cells in a unit volume of blood (%) ([3]; 0.3 mg/kg single oral, −0.5 h (before administration)): 59.12 ± 2.19%
Percentage of lymphocytes in white blood cells in a unit volume of blood (%) ([3]; 1.0 mg/kg single oral, 4 h): 36.82 ± 2.33^****$$$ %
Rate of change of lymphocytes in blood after administration (%) ([3]; 1.0 mg/kg single oral, 4 h): −71.25 ± 1.93 %
maximum decreasing rate of the number of blood lymphocytes ([3]; 1.0 mg/kg single oral, 8 h): 83.09%
Percentage of lymphocytes in white blood cells in a unit volume of blood (%) ([3]; 1.0 mg/kg single oral, 8 h): 29.89 ± 2.56^****$$$$ %
Rate of change of lymphocytes in blood after administration (%) ([3]; 1.0 mg/kg single oral, 8 h): −83.09 ± 1.25 %
blood lymphocyte decreasing rate ([3]; 1.0 mg/kg single oral, 24 h): 0.22%
Percentage of lymphocytes in white blood cells in a unit volume of blood (%) ([3]; 1.0 mg/kg single oral, 24 h): 61.62 ± 1.61%
Rate of change of lymphocytes in blood after administration (%) ([3]; 1.0 mg/kg single oral, 24 h): −0.22 ± 6.87^**#$$ %
Percentage of lymphocytes in white blood cells in a unit volume of blood (%) ([3]; 1.0 mg/kg single oral, −0.5 h (before administration)): 59.49 ± 1.01%
Percentage of lymphocytes in white blood cells in a unit volume of blood (%) ([3]; 3.0 mg/kg single oral, 4 h): 34.03 ± 3.81^****#$$$$ %
Rate of change of lymphocytes in blood after administration (%) ([3]; 3.0 mg/kg single oral, 4 h): −78.97 ± 0.91 %
maximum decreasing rate of the number of blood lymphocytes ([3]; 3.0 mg/kg single oral, 8 h): 85.92%
Percentage of lymphocytes in white blood cells in a unit volume of blood (%) ([3]; 3.0 mg/kg single oral, 8 h): 26.19 ± 2.81^****$$$$ %
Rate of change of lymphocytes in blood after administration (%) ([3]; 3.0 mg/kg single oral, 8 h): −85.92 ± 1.26 %
blood lymphocyte decreasing rate ([3]; 3.0 mg/kg single oral, 24 h): 55.15%
Percentage of lymphocytes in white blood cells in a unit volume of blood (%) ([3]; 3.0 mg/kg single oral, 24 h): 57.05 ± 2.49%
Rate of change of lymphocytes in blood after administration (%) ([3]; 3.0 mg/kg single oral, 24 h): −55.15 ± 3.32^****$$$$& %
Percentage of lymphocytes in white blood cells in a unit volume of blood (%) ([3]; 3.0 mg/kg single oral, −0.5 h (before administration)): 62.35 ± 2.26%
Injury area (cm^2) [4, 5]: 6.09 ± 0.94 cm^2
Ulcer area (cm^2) [4, 5]: 2.42 ± 0.66 cm^2
Injury area (cm^2) [4, 6]: 5.34 ± 0.90 cm^2
Ulcer area (cm^2) [4, 6]: 2.18 ± 0.84 cm^2
Injury area (cm^2) [4, 7]: 3.42 cm^2 and 3.42 ± 0.73* cm^2
Ulcer area (cm^2) [4, 7]: 0.94 ± 0.55 cm^2
symptoms of colon ulcers and edema (dissection at the end of the experiment) ([4]; 0.6 mg/kg, compared to the model group): reduced compared to the model group
Inflammation score ([4]; 0.1 mg/kg): 3.57 ± 0.20
Total injury score ([4]; 0.1 mg/kg): 6.14 ± 0.40
Ulcer score ([4]; 0.1 mg/kg): 2.57 ± 0.20
Inflammation score ([4]; 0.3 mg/kg): 3.57 ± 0.37
Total injury score ([4]; 0.3 mg/kg): 6.14 ± 0.63
Ulcer score ([4]; 0.3 mg/kg): 2.57 ± 0.30
